The results in this text go back to patent publication US20230063457A1, “DNA-PK INHIBITING COMPOUNDS” (Provincial Health Services Authority, priority 2019, published 2023).

The test has as its target DNA-PK kinase (Homo sapiens, UniProt P78527). Nature of the test: Inhibition of DNA-PK kinase activity (ADP-Glo). It is filed as biochemical. The conditions noted are these: averaged values over all measurements on all batches; 150 μM ATP, 1 hour at 25° C. The protocol:
Inhibition of DNA-PK Kinase Activity Assay buffer was 50 mM Hepes pH 7.5 containing 0.1 mg/ml BSA (albumin from bovine serum), 50 μM DTT (dithiothreitol), 20 mM MgCl2 and 10 μg/ml calf thymus DNA (activation buffer). Kinase reaction was carried out in OptiPlate 384 plates (PerkinElmer 6007299). All compounds tested were dissolved in dimethyl sulfoxide (DMSO) and further dilutions were made in assay buffer. Final DMSO concentration was 1% (v/v). Pre-incubation consisted of compound (1% DMSO in control and blank wells) and 24 ng/well DNA-PK kinase to allow the compounds to bind the enzyme (with buffer in the blank wells) for 15 minutes; after this time 150 μM Adenosine-5′-triphosphate (ATP) and 0.2 μg/μl DNA-PK substrate were added to commence the kinase reaction. Incubations were carried out for 1 hour at 25° C. Kinase activity was determined by using ADP-Glo™ reagent from Promega according to the manufacturer's instructions. The light generated was measured using a luminometer (EnVision, PerkinElmer). Signal obtained in the wells containing blank samples was subtracted from all other wells and IC50 values were determined by fitting a sigmoidal curve to % inhibition of control versus Log10 compound concentration.
Background: In ADP-Glo the light output rises with the ADP produced.
`c1cnc(N2CCC23CCN(c2nc(N4CCOCC4)cc4ncccc24)C3)nc1` (centres unmarked) [Example 29]: 345 nM corresponded to half-maximal inhibition (IC50).

As for `N#Cc1cnc(NCC2CCN(c3nc(N4CCOCC4)cc4ncccc34)CC2)nc1Cl` [Example 123], the IC50 (commonly the concentration that inhibits the measured activity by half) came to 232 nM. Next, `c1cncc(C2CCCCN2c2nc(N3CCOCC3)cc3ncccc23)c1` (centres unmarked) [Example 85]: 2030 nM. `c1cnc(CN2CCC3CN(c4nc(N5CCOCC5)cc5ncccc45)CC32)nc1` (centres unmarked) [Example 42] registered an IC50 of 2260 nM. The molecule `c1cnc(NCC2CCCN(c3nc(N4CCOCC4)cc4ncccc34)C2)nc1` (centres unmarked) [Example 36] showed an IC50 of 949 nM. Next, `CC(=O)Nc1ccnc(NCC2CCN(c3nc(N4CCOCC4)cc4ncccc34)CC2)n1` [Example 126]: 676 nM; `c1cnc(N2CC3CN(c4nc(N5CCOCC5)cc5ncccc45)CC3C2)nc1` (centres unmarked) [Example 28]: 342 nM.

`NC(=O)N1CCC(Oc2nc(N3CCOCC3)cc3ncccc23)CC1` [Parent compound 147] registered an IC50 of 340 nM. Under `CN(C)CC1CCN(c2nc(N3CCOCC3)cc3ncccc23)CC1` [Parent compound 145] stands 3440 nM. Molecule `O=C(Nc1ncccn1)N1CCN(c2nc(N3CCOCC3)cc3ncccc23)CC1` [Parent compound 146] showed an IC50 of 232 nM. Under `CC(C)(C)OC(=O)N1CCC(Oc2nc(N3CCOCC3)cc3ncccc23)CC1` [Example 48] stands 328 nM; under `c1cnc(N2CC3(CCN(c4nc(N5CCOCC5)cc5ncccc45)C3)C2)nc1` [Example 34], 588 nM; under `C[S+]([O-])[C@H]1CC[C@@H](Oc2nc(N3CCOCC3)cc3ncccc23)CC1` (mixture of isomers) [Example 83], 169 nM. `c1cnc2cc(N3CCOCC3)nc(N3CCCCC3)c2c1` [Example 32] came in with an IC50 of 523 nM. Next, `O=S(=O)(NCC1CCN(c2nc(N3CCOCC3)cc3ncccc23)CC1)c1ccc(F)cc1` [Example 142]: 808 nM; `c1cnc(N2CCC3(C2)CN(c2nc(N4CCOCC4)cc4ncccc24)C3)nc1` [Example 35]: 720 nM; `COc1nc(NCC2CCN(c3nc(N4CCOCC4)cc4ncccc34)CC2)ncc1Cl` [Example 124]: 247 nM. Under `c1ccc(NCC2CCN(c3nc(N4CCOCC4)cc4ncccc34)CC2)cc1` [Example 138] stands 501 nM; under `CC1CN(c2ncn[nH]2)CCC1Oc1nc(N2CCOCC2)cc2ncccc12` (centres unmarked) [Parent compound 159], 116 nM; under `Cc1ccnc(NCC2CCN(c3nc(N4CCOCC4)cc4ncccc34)CC2)c1` [Example 134], 155 nM. Next, `C[C@@H]1CN(c2ncn[nH]2)CC[C@@H]1Oc1nc(N2CCOCC2)cc2ncccc12` (single isomer, unassigned) [Parent compound 160]: 493 nM. Take `c1cnc(NCCC2CCCN(c3nc(N4CCOCC4)cc4ncccc34)C2)nc1` (centres unmarked) [Example 23]: the IC50 stood at 211 nM.

`CC1(CNc2ncccn2)CCN(c2nc(N3CCOCC3)cc3ncccc23)C1` (centres unmarked) [Example 25] returned an IC50 of 224 nM.

On to `O=C(Nc1ncccn1)C1CCN(c2nc(N3CCOCC3)cc3ncccc23)CC1` [Example 26], for which the IC50 was 226 nM. Under `COc1ccc(COc2nc(N3CCOCC3)cc3ncccc23)cc1` [Example 53] stands 242 nM. Next, `Oc1cnc2c(Cl)c(N3CCOCC3)nc(O[C@H]3CC[C@@H](n4ccnc4)CC3)c2c1` [Parent compound 172]: 242 nM; `O=C(O)c1ccnc(NCC2CCN(c3nc(N4CCOCC4)cc4ncccc34)CC2)n1` [Example 110]: 88 nM; `Nc1ccnc(NCC2CCN(c3nc(N4CCOCC4)cc4ncccc34)CC2)n1` [Parent compound 139]: 126 nM. Next, `OCc1ccnc(NCC2CCN(c3nc(N4CCOCC4)cc4ncccc34)CC2)n1` [Example 116]: 124 nM; `CC(=O)NCC1CCN(c2nc(N3CCOCC3)cc3ncccc23)CC1` [Parent compound 140]: 257 nM. Take `c1cnc(NCCCOc2nc(N3CCOCC3)cc3ncccc23)nc1` [Example 7]: the IC50 was 415 nM. Under `c1cnc(NC2CCCN(c3nc(N4CCOCC4)cc4ncccc34)C2)nc1` (centres unmarked) [Example 31] stands 492 nM; under `CC(C)(C)OC(=O)NCC1CCN(c2nc(N3CCOCC3)cc3ncccc23)CC1` [Example 33], 532 nM; under `N#Cc1cc(Br)cnc1NCC1CCN(c2nc(N3CCOCC3)cc3ncccc23)CC1` [Example 125], 504 nM.

Regarding `COc1cccnc1NCC1CCN(c2nc(N3CCOCC3)cc3ncccc23)CC1` [Example 137], half-maximal inhibition (IC50) required 457 nM. Under `CN(C)C(=O)N1CC(COc2nc(N3CCOCC3)cc3ncccc23)C1` [Parent compound 149] stands 244 nM; under `c1cnc2cc(N3CCOCC3)nc(OC3CCCCC3)c2c1` [Example 9], 468 nM. The molecule `Fc1cccnc1NCC1CCN(c2nc(N3CCOCC3)cc3ncccc23)CC1` [Example 135] had an IC50 of 178 nM. Under `c1cnc2cc(N3CCOCC3)nc(OC3CCNCC3)c2c1` [Example 89] stands 361 nM; under `c1cnc2cc(N3CCOCC3)nc(N3CCNCC3)c2c1` [Example 95], 5440 nM; under `O=C(NC1CCN(c2nc(N3CCOCC3)cc3ncccc23)CC1)c1ncccn1` [Example 27], 274 nM.

In turn, `CC(C)(C)OC(=O)N1CCC2CN(c3nc(N4CCOCC4)cc4ncccc34)CC21` (centres unmarked) [Example 37] returned an IC50 of 1300 nM. Under `CS(=O)(=O)NCC1CCN(c2nc(N3CCOCC3)cc3ncccc23)CC1` [Parent compound 141] stands 370 nM; under `CC(C)(C)OC(=O)NCCC1CCN(c2nc(N3CCOCC3)cc3ncccc23)CC1` [Example 30], 369 nM. Under `c1cnc2cc(N3CCOCC3)nc(N3CCC(CNc4ccncc4)CC3)c2c1` [Example 136] stands 340 nM; under `c1cnc2cc(N3CCOCC3)nc(N3CCC(c4ncc[nH]4)CC3)c2c1` [Example 86], 223 nM; under `C[C@H]1CN(c2cc3ncccc3c(O[C@H]3CC[C@@H](c4nc[nH]n4)CC3)n2)CCO1` [Example 68], 48 nM.
